Assay results published in US12582633B2 (priority 2020, dated 2026).
Converted amounts (≈) assume the structure as drawn. “And” between values parts separate entries of the source, which are not always exact repeats. Equal values may be shown once.

Experiments:
[1] = test system: SARS-CoV-2; experiment: microbe, parasite or virus in culture; assay type: cell-based
[2] = test system: Vero E6 cells

O=C1CN(/N=C/c2ccc(-c3ccc([N+](=O)[O-])cc3)o2)C(O)=N1 [dantrolene]
Day 2 Read (CPE) [1]: 3/3 wells had No CPE and 3/3 wells had > 90% CPE and 3/3 wells had sparse
Day 4 Read (CPE) [1]: 3/3 wells had No CPE and 2/3 wells had > 90% CPE and 1/3 wells had > 90% CPE and 3/3 wells had > 90% CPE and 3/3 wells had sparse
Day 6 Read (CPE) [1]: 3/3 wells had No CPE and 2/3 wells had > 90% CPE and 1/3 wells had > 90% CPE and 3/3 wells had > 90% CPE and 3/3 wells had sparse
MIC ([1]; Severe acute respiratory syndrome coronavirus 2, read-out: minimum inhibitory concentration): 20 µM (≈ 6.29 µg/mL)
cell viability of uninfected Vero E6 cells [2]: good cell viability
